Test results taken from PubChem BioAssay (NCI).
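Grown in 96-well plates, cells were treated for 48 hours with each compound at five concentrations. Insufficient inhibition: endpoint recorded as highest concentration tested. GI50 = concentration required for 50% inhibition of growth. TGI marks complete inhibition of growth.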

How the values were obtained:
Assay in all cases: NCI anticancer screen, dose series, 48 h
[1] = test system: A498 renal
[2] = test system: A549 NSCLC
[3] = test system: HL-60(TB) leukemia
[4] = test system: HOP-92 NSCLC
[5] = test system: LOX IMVI melanoma
[6] = test system: MALME-3M melanoma
[7] = test system: RPMI-8226 leukemia
[8] = test system: SF-268 CNS
[9] = test system: SF-539 CNS
[10] = test system: SNB-19 CNS

| Compound | TGI [1] [µM] | TGI [2] [µM] | TGI [3] [µM] | TGI [4] [µM] | TGI [5] [µM] | TGI [6] [µM] | TGI [7] [µM] | TGI [8] [µM] | TGI [9] [µM] | TGI [10] [µM] | GI50 [1] [µM] | GI50 [2] [µM] | GI50 [3] [µM] | GI50 [4] [µM] | GI50 [5] [µM] | GI50 [6] [µM] | GI50 [7] [µM] | GI50 [8] [µM] | GI50 [9] [µM] | GI50 [10] [µM] |
| --- | --- | --- | --- | --- | --- | --- | --- | --- | --- | --- | --- | --- | --- | --- | --- | --- | --- | --- | --- | --- |
| FC1OC2OC1C(OCc1ccccc1)C(OCc1ccccc1)C2OCc1ccccc1 (stereo not drawn) | > 100 | > 100 | 62.9 | 64 | > 100 | > 100 | 61.2 | > 100 | > 100 | > 100 | – | – | – | – | – | – | – | – | – | – |
| CC(=O)C1C(=O)N(C(C)C)C[C@@H]2CCC(=O)C[C@H]12 (stereo partly drawn) | > 100 | > 100 | > 100 | > 100 | > 100 | > 100 | > 100 | > 100 | > 100 | > 100 | – | – | – | – | – | – | – | – | – | – |
| CCOP(=O)(Nc1ccc2oc(=O)c3ccccc3c2c1)OCC | > 100 | > 100 | 55.8 | > 100 | > 100 | > 100 | 98.2 | > 100 | > 100 | > 100 | – | – | – | – | – | – | – | – | – | – |
| Cc1nc(N)nc2ccccc12 | > 100 | > 100 | > 100 | > 100 | > 100 | > 100 | > 100 | > 100 | > 100 | > 100 | – | – | – | – | – | – | – | – | – | – |
| CNC(=O)CN(CC(N)=O)C(N)=O | > 100 | > 100 | > 100 | > 100 | > 100 | > 100 | > 100 | > 100 | > 100 | > 100 | – | – | – | – | – | – | – | – | – | – |
| Cc1cc(Cl)ccc1NS(=O)(=O)c1ccc(-c2cnc(C3CC3)o2)cc1 | 0.841 | 17 | 2.89 | 13 | 14.2 | 26.7 | 23.1 | 23 | 2.51 | 18.7 | 0.0915 | 0.372 | 0.202 | 1.05 | 0.622 | 0.567 | 0.343 | 2.98 | 0.215 | 0.395 |
| N[C@@H]1CCCC[C@@H]1N.O=P([O-])([O-])CN(CP(=O)([O-])[O-])CP(=O)([O-])[O-].[Pt+2] | > 100 | > 100 | > 100 | > 100 | > 100 | > 100 | > 100 | > 100 | > 100 | > 100 | > 100 | > 100 | > 100 | > 100 | > 100 | > 100 | > 100 | > 100 | > 100 | > 100 |
| COc1ccc(S(=O)(=O)N(C)CC(=O)O)cc1 | > 100 | > 100 | > 100 | > 100 | > 100 | > 100 | > 100 | > 100 | > 100 | > 100 | – | – | – | – | – | – | – | – | – | – |
| COc1nc(NC2OC(COC(C)=O)C(OC(C)=O)C(OC(C)=O)C2OC(C)=O)c(-c2csc(N)n2)c(=O)n1C (stereo not drawn) | > 100 | > 100 | – | > 100 | > 100 | 78.8 | > 100 | > 100 | > 100 | > 100 | – | – | – | – | – | – | – | – | – | – |
| CC1CC[C@]2(C(=O)O)CCC3(C)C(=CCC4[C@@]5(C)CC[C@H](OS(=O)(=O)c6ccccc6)C(C)(C)C5CC[C@]43C)[C@@H]2[C@H]1C (stereo partly drawn) | > 100 | > 100 | – | > 100 | > 100 | > 100 | > 100 | > 100 | > 100 | > 100 | – | – | – | – | – | – | – | – | – | – |
| CC(=O)Oc1ccc2c(c1)CC[C@@H]1C2CC[C@]2(C)C(=O)NC(=O)CC12 (stereo partly drawn) | > 100 | > 100 | > 100 | > 100 | – | > 100 | – | > 100 | > 100 | > 100 | – | – | – | – | – | – | – | – | – | – |
| Cc1cc(C(O)CN(C)C)cc2c1ccc1cc(C(C)C)ccc12 (stereo not drawn) | 11.7 | 3.54 | 4.08 | 6.45 | – | 3.83 | 5.12 | 7.73 | 3.59 | 4.75 | 2.36 | 1.93 | 1.89 | 1.83 | – | 1.92 | 2.36 | 2.8 | 1.98 | 2.07 |
| COc1cccc(/C=C/C(=O)c2cc3c(N)c(C(=O)Nc4cccc5ccccc45)sc3nc2C)c1 | 2.74 | > 50 | 2.61 | 4.9 | 1.69 | > 50 | 2.73 | > 50 | 2.8 | > 50 | 0.885 | 1.46 | 1.06 | 0.953 | 0.826 | 1.96 | 0.461 | 1.89 | 1.17 | 1.69 |
| C=[CH][Sn]([CH]=C)([O]c1cccc2cccnc12)[O]c1cccc2cccnc12 | 14.2 | 13.9 | 2.91 | 19.5 | 4.86 | 10.3 | 4.71 | 29.9 | 9.27 | 23.8 | 5.88 | 3.37 | 0.619 | 6.52 | 1.46 | 3.35 | 0.877 | 5.12 | 2.85 | 8.36 |
| Oc1ccc(Cl)cc1Cc1cc(Cl)ccc1O | 9.84 | 11.1 | 6.05 | 3.58 | 8.51 | 6.35 | 5.1 | 11.3 | 13.8 | 15 | 1.98 | 2.95 | 2.42 | 0.801 | 2.82 | 2.55 | 1.53 | 2.81 | 3.8 | 3.52 |
| C/C=C1\C(=O)OC2CCN3CCC(COC(=O)C(C)(O)C(C)C1O)C23 (stereo not drawn) | > 100 | > 100 | > 100 | > 100 | > 100 | > 100 | – | > 100 | > 100 | > 100 | – | – | – | – | – | – | – | – | – | – |
